Measured values: patent US7419965B2, “Nucleotide lipid ester derivatives” (Heidelberg Pharma AG, priority 2003, dated 2008)

Legend:
Parameters in all cases: species or system nude mice
[1] = system: human colon carcinoma xenograft HCT-15; assay: Antitumor activity in human colon carcinoma xenograft model (HCT-15) in vivo; conditions: for Tumor weight (median): ip once daily for 5 days from day 8, day 28; for Tumor inhibition: ip once daily for 5 days, day 28, vs vehicle control
Protocol: The antitumor activity of the nucleotide conjugate and its corresponding nucleoside has been compared in the human colon carcinoma xenograft HCT-15 model in nude mice.
Tumor bearing mice were randomized on day 7 after HCT-15 tumor cell inoculation and were distributed to treatment groups of 9 animals per group. Treatment was started on day 8. The animals were treated intraperitoneally (ip) once daily for 5 consecutive days with the nucleotide conjugate or the nucleoside. Dosages included 50 and 25% of the Maximum Tolerable Doses (MTD′s). Control animals were injected with the corresponding solvents (Vehicle 1 or 2). On day 28, the primary tumors were explanted and the tumor weights were determined.
(§1) Tumor bearing mice were distributed to treatment groups of 9-10 animals per group. Treatment Treatment cycle(s)(one or two) were performed consisting of once daily intraperitoneal administrations for 5 consecutive days. Dosages were in the range of 6.25% and 100% of the Maximum Tolerated Doses (MTD's). Control animals were treated with solvent (vehicle) only, The percentage of tumor inhibition refers to the median tumor size of the vehicle treated control group and dose groups at the end of each experiment.

[2] = system: human breast carcinoma xenograft MDA-MB-231; assay: Antitumor activity in human breast carcinoma xenograft model (MDA-MB-231) in vivo; conditions: for Tumor inhibition: day 49, vs vehicle control; for Tumor volume (median): orally once daily days 21-25 and 28-32, day 49
Protocol: The antitumor activity of nucleotide conjugate and its corresponding nucleoside has been compared in the human breast carcinoma xenograft MDA-MB-231 model in nude mice.
Tumor bearing mice were randomized on day 21 after MDA-MB-231 tumor cell inoculation and were distributed to treatment groups of 9 animals per group. Treatment was started on day 21. At this time point the animals had well vascularized tumors of about 400 mg. The animals were treated orally once daily for 2 weeks with nucleotide conjugate and its corresponding nucleoside on days 21-25 and 28-32. Doses ranged from 6.25% to 50% of the Maximum Tolerable Doses (MTD's). Control animals were treated with the solvent (vehicle) only. […]

[3] = system: human prostate carcinoma xenograft PC-3; assay: Antitumor activity in human prostate carcinoma xenograft model (PC-3) in vivo; conditions: for Tumor inhibition: day 52, vs vehicle control; for Tumor weight (median): ip once daily for 5 days from day 7, day 52
Protocol: The antitumor activity of nucleoside conjugate and nucleoside has been compared in the human prostate carcinoma xenograft PC-3 model in nude mice.
Tumor bearing mice were randomized on day 7 after PC-3 tumor cell inoculation and were distributed to treatment groups of n=10 animals per group. Treatment was started on day 7. The animals were treated intraperitoneally (ip) once daily for 5 consecutive days with nucleotide conjugate or nucleoside. Dosages included 100 and 50% of the Maximum Tolerable Doses (MTD's). Control animals were treated with the corresponding solvent (vehicle) only. On day 52, the primary tumors were explanted and the tumor weights were determined.
as §1

[4] = system: human ovarian carcinoma xenograft SKOV-3; assay: Antitumor activity in human ovarian carcinoma xenograft model (SKOV-3) in vivo; conditions: for Tumor inhibition: end of treatment period (day 17), vs vehicle control; for Tumor volume (median): ip once daily day 6-10 and 13-17, end of treatment (day 17)
Protocol: The antitumor activity of nucleotide conjugate and nucleoside has been compared in the human ovarian carcinoma xenograft SKOV-3 model in nude mice.
(§2) Tumor bearing mice were randomized on day 6 after SKOV-3 tumor cell inoculation and were distributed to treatment groups of 9 animals per group. Treatment was started on day 6. The animals were treated intraperitoneally (ip) once daily on day 6-10 and 13-17 with nucleotide conjugate or nucleoside. Dosages ranged between 6.25 and 100% of the Maximum Tolerable Doses (MTD's). Control animals were treated with solvent (vehicle) only.
as §1

[5] = system: human pancreatic carcinoma xenograft AspC1; assay: Antitumor activity in human pancreatic carcinoma xenograft model (AspC1) in vivo; conditions: for Tumor inhibition: day 30, vs vehicle control; for Tumor weight (median): ip once daily day 6-10 and 20-23, day 30
Protocol: The antitumor activity of nucleotide conjugate and nucleoside has been compared in the human pancreatic carcinoma xenograft AspC1 model in nude mice.
as §2, with “AspC1” for “SKOV-3”, “10” for “9”, “20-23” for “13-17”, “included 100” for “ranged between 6.25”, “50%” for “100%”
as §1

[6] = system: human cervix carcinoma xenograft KB-3-1; assay: Antitumor activity in human cervix carcinoma xenograft model (KB-3-1) in vivo; conditions: for Tumor inhibition: day 29, vs vehicle control; for Tumor volume (median): ip once daily days 8-12, day 29
Protocol: The antitumor activity of nucleotide conjugate and nucleoside has been compared in the human cervix carcinoma xenograft KB-3-1 model in nude mice.
Tumor bearing mice were randomized on day 8 after KB-3-1 tumor cell inoculation and were distributed to treatment groups of 9 animals per group. Treatment was started on day 8. The animals were treated intraperitoneally (ip) once daily for 5 consecutive days (days 8-12) with nucleotide conjugate or nucleoside. Dosages included 100 and 50% of the Maximum Tolerable Doses (MTD's). Control animals were injected with solvent (Vehicle).
as §1

[7] = 25% MTD (nucleoside 20, conjugate 63 mg/kg/injection)
[8] = 50% MTD (nucleoside 40, conjugate 125 mg/kg/injection)
[9] = HCT-15, Dose 50.00 % MTD as printed in summary table
[10] = HCT-15, Dose 100.00 % MTD as printed in summary table
[11] = 6.25% MTD (nucleoside 2.5, conjugate 12.5 mg/kg)
[12] = 12.50% MTD (nucleoside 5.0, conjugate 25.0 mg/kg)
[13] = 25.00% MTD (nucleoside 10.0, conjugate 50.0 mg/kg)
[14] = 50.00% MTD (nucleoside 20.0, conjugate 100.0 mg/kg)
[15] = 50% MTD (nucleoside 20, conjugate 50 mg/kg/injection)
[16] = 100% MTD (nucleoside 40, conjugate 100 mg/kg/injection)
[17] = 25% MTD (nucleoside 7.5, conjugate 18.8 mg/kg/injection)
[18] = 50% MTD (nucleoside 15.0, conjugate 37.5 mg/kg/injection)
[19] = 100% MTD (nucleoside 30.0, conjugate 75.0 mg/kg/injection)

SMILES: Nc1nc(Cl)nc2c1ncn2[C@@H]1O[C@H](CO)[C@@H](O)[C@@H]1F [Nucleoside, 2-Chloro-9-(2′-deoxy-2′-fluoro-β-D arabinofuranosyl)adenine, reference compound]
- Tumor weight (median) [1, 7]: 431 mg
- Tumor inhibition [1, 7]: 25%
- Tumor weight (median) [1, 8]: 329 mg
- Tumor inhibition [1, 8]: 42%
- Tumor inhibition (summary table) [1, 9]: 25%
- Tumor inhibition (summary table) [1, 10]: 42%
- Tumor inhibition [2, 11]: 46%
- Tumor volume (median) [2, 11]: 1862 mm^3
- Tumor inhibition [2, 12]: 84%
- Tumor volume (median) [2, 12]: 550 mm^3
- Tumor inhibition [2, 13]: 95%
- Tumor volume (median) [2, 13]: 172 mm^3
- Tumor inhibition [2, 14]: 97%
- Tumor volume (median) [2, 14]: 108 mm^3
- Tumor inhibition [3, 15]: 40%
- Tumor weight (median) [3, 15]: 303 mg
- Tumor inhibition [3, 16]: 60%
- Tumor weight (median) [3, 16]: 202 mg
- Tumor inhibition [4, 17]: 37%
- Tumor volume (median) [4, 17]: 162 mm^3
- Tumor inhibition [4, 18]: 58%
- Tumor volume (median) [4, 18]: 108 mm^3
- Tumor inhibition [4, 19]: 51%
- Tumor volume (median) [4, 19]: 126 mm^3
- Tumor inhibition [5, 18]: 30%
- Tumor weight (median) [5, 18]: 160 mg
- Tumor inhibition [5, 19]: 35%
- Tumor weight (median) [5, 19]: 150 mg
- Tumor inhibition [6, 15]: 68%
- Tumor volume (median) [6, 15]: 1059 mm^3
- Tumor inhibition [6, 16]: 49%
- Tumor volume (median) [6, 16]: 1705 mm^3

SMILES: CCCCCCCCCCCCSCC(COP(=O)(O)OC[C@H]1O[C@@H](n2cnc3c(N)nc(Cl)nc32)[C@@H](F)[C@@H]1O)OCCCCCCCCCC (stereo partly drawn) [Nucleotide conjugate, [2-Chloro-9-(2′-deoxy-2′-fluoro-β-D arabinofuranosyl)adenine]-5′-phosphoric acid-(3-dodecylmercapto-2-decyloxy)propyl ester]
- Tumor weight (median) [1, 7]: 257 mg
- Tumor inhibition [1, 7]: 62%
- Tumor weight (median) [1, 8]: 16 mg
- Tumor inhibition [1, 8]: 98%
- Tumor inhibition (summary table) [1, 9]: 62%
- Tumor inhibition (summary table) [1, 10]: 98%
- Antitumor efficacy compared with the corresponding nucleoside ([1]; at both doses): significantly (p<0.01) higher
- Activity relative to nucleoside (conclusion) ([1]; conclusion of summary, human colon carcinoma xenograft): Superior activity
- Tumor inhibition [2, 11]: 63%
- Tumor volume (median) [2, 11]: 1267 mm^3
- Tumor inhibition [2, 12]: 94%
- Tumor volume (median) [2, 12]: 196 mm^3
- Tumor inhibition [2, 13]: 97%
- Tumor volume (median) [2, 13]: 108 mm^3
- Tumor inhibition [2, 14]: 99%
- Tumor volume (median) [2, 14]: 51 mm^3
- Antitumor efficacy compared with the corresponding nucleoside ([2]; at all doses): significantly (p <0.05) higher
- Activity relative to nucleoside (conclusion) ([2]; conclusion of summary, MDA-MB-231): Superior activity
- Tumor inhibition [3, 15]: 82%
- Tumor weight (median) [3, 15]: 92 mg
- Tumor inhibition [3, 16]: 87%
- Tumor weight (median) [3, 16]: 64 mg
- Antitumor efficacy compared with Nucleoside ([3]; at both doses): significantly higher (p<0.01)
- Activity relative to nucleoside (conclusion) ([3]; conclusion of summary, PC-3): Superior activity
- Tumor inhibition [4, 17]: 44%
- Tumor volume (median) [4, 17]: 144 mm^3
- Tumor inhibition [4, 18]: 58%
- Tumor volume (median) [4, 18]: 108 mm^3
- Tumor inhibition [4, 19]: 75%
- Tumor volume (median) [4, 19]: 63 mm^3
- Antitumor efficacy compared with the nucleoside ([4]; at MTD): significantly higher (p<0.01)
- Activity relative to nucleoside (conclusion) ([4]; conclusion of summary, SKOV-3): Superior activity
- Tumor inhibition [5, 18]: 65%
- Tumor weight (median) [5, 18]: 80 mg
- Tumor inhibition [5, 19]: 96%
- Tumor weight (median) [5, 19]: 10 mg
- Antitumor efficacy compared with Nucleoside ([5]; at both doses): significantly higher (p<0.01)
- Activity relative to nucleoside (conclusion) ([5]; conclusion of summary, AspC1): Superior activity
- Tumor inhibition [6, 15]: 74%
- Tumor volume (median) [6, 15]: 877 mm^3
- Tumor inhibition [6, 16]: 97%
- Tumor volume (median) [6, 16]: 104 mm^3
- Antitumor efficacy compared with Nucleoside ([6]; at the MTD): significantly higher (p<0.01)
- Activity relative to nucleoside (conclusion) ([6]; conclusion of summary, KB-3-1): Superior activity
